Measurements as given in US11161825B2, “4-oxo-2,3,4,5-tetrahydro-1H-1,5-benzodiazepine-7-carboxamides” (Bayer Aktiengesellschaft, priority 2017, dated 2021).

Legend:
SMYD3 = target: T1, SMYD3 (Homo sapiens, UniProt Q9H7B4); assay: SMYD3 Scintillation Proximity Assay (SPA), methylation of MAP3K2 Peptide; format: biochemical; conditions: SMYD3 full length enzyme 10 nM, 3H-SAM 125 nM, MAP3K2 Peptide 1 μM, 120 min at 22° C.
T1 construct: The SMYD3 full length enzyme was produced in-house by expression (with an N-terminal 6×His tag) in E. coli; 6xHis (N); made in house; host or cells: E. coli
T1 sequence (Q9H7B4 1-428): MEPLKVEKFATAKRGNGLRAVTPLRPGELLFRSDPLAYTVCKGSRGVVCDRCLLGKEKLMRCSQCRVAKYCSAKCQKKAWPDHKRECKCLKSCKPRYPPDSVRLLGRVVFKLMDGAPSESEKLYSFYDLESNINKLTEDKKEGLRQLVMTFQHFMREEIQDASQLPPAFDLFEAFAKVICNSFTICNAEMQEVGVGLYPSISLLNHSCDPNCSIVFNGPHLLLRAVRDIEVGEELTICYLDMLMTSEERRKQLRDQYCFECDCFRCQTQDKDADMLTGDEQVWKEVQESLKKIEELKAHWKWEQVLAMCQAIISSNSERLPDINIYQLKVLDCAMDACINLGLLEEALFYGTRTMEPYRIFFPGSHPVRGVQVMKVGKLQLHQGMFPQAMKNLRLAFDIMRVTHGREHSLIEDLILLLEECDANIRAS
Description: SMYD3 Scintillation Proximity Assay (SPA)
The SMYD3 full length enzyme was produced in-house by expression (with an N-terminal 6×His tag) in E. coli and purification by affinity chromatography on a Ni-NTA Sepharose column followed by a size exclusion chromatography step on a Superdex 200 16/60 column (GE Healthcare).
To this end, 100-fold concentrated compound solutions (in DMSO) were previously prepared by serial dilution (1:3.4) of 2 mM stocks in a clear low volume 384-well source microtiter plate (Greiner Bio-One), from which 100 nl of compounds were transferred into a white low volume test microtiter plate from the same supplier. […] The resulting mixture (5 μl final volume) was shortly centrifuged (2 min., 1500 rpm) and incubated at 22° C. during 120 min. […] Plates containing the stopped reaction were sealed with transparent adhesive foil (Perkin Elmer), centrifuged (2 min., 1500 rpm), and further incubated overnight at 4° C. in order to allow the SPA signals to develop. Subsequently, the amount of product was evaluated by measuring the energy transfer from the […] emitted by the 3H-labeled substrate to the scintillator co-polymerized in the bead's matrix, using a TopCount NXT scintillation counter (Packard) with the standard instrument settings for this purpose. The resulting scintillation counts were taken as indicator for the amount of methylated peptide per well. […] IC50 values were calculated by fitting the normalized inhibition data to a 4-parameter logistic equation using the XLFit analysis software (IDBS).

[1] = target: T2, untagged full length SMYD3 (Homo sapiens, UniProt Q9H7B4); assay: Thermal Shift Assay; format: binding; conditions: protein 1.5-2.0 μM, 5× SYPRO Orange, scans 25° C. to 80° C.; control 4% DMSO
T2 construct: As protein untagged full length SMYD3 was used
T2 sequence (Q9H7B4 1-428): T1 sequence (Q9H7B4 1-428)
Description: Thermal Shift Assay Thermal melting experiments were performed with a ViiA™ Real-Time PCR machine (Thermo Fisher Scientific) in 384-well microliter plate with a final volume of 5 μL. Melting curves were obtained at a protein concentration of 1.5-2.0 μM and 5× SYPRO Orange (Invitrogen) using buffer containing 20 mM Tris pH7.0; 150 mM NaCl; 1.0 mM DTT. As protein untagged full length SMYD3 was used. […] As control 4% DMSO was used. Scans were measured from 25° C. to 80° C. at a scanning rate of 0.1° C./sec. All TSA data were analyzed by using Genedata Assay Analyzer.

IC50 (SMYD3) [µM]	Thermal shift assay (° C.) [1] [°C]	Compound
1.26	5.21	CC1C(=O)Nc2cc(C(=O)NCCC3CC3)ccc2N(C(=O)c2ccccc2)C1C (mixture of isomers) [Example 2, 1-benzoyl-N-(2-cyclopropylethyl)-2,3-dimethyl-4-oxo-2,3,4,5-tetrahydro-1H-1,5-benzodiazepine-7-carboxamide]
1.23	4.38	CC1C(=O)Nc2cc(C(=O)NCCC3CCC3)ccc2N(C(=O)c2ccccc2)C1C (mixture of isomers) [Example 4, 1-benzoyl-N-(2-cyclobutylethyl)-2,3-dimethyl-4-oxo-2,3,4,5-tetrahydro-1H-1,5-benzodiazepine-7-carboxamide]
0.0372	10.30	CC1C(=O)Nc2cc(C(=O)NCCC3CC3)ccc2N(C(=O)N2CCC(N)CC2)C1C (mixture of isomers) [Example 19, 1-[(4-aminopiperidin-1-yl)carbonyl]-N-(2-cyclopropylethyl)-2,3-dimethyl-4-oxo-2,3,4,5-tetrahydro-1H-1,5-benzodiazepine-7-carboxamide]
1.66	5.27	CC1CC(=O)Nc2cc(C(=O)NCCC3CC3)ccc2N1C(=O)c1ccccc1 (racemic) [Example 1, 1-benzoyl-N-(2-cyclopropylethyl)-2-methyl-4-oxo-2,3,4,5-tetrahydro-1H-1,5-benzodiazepine-7-carboxamide]
1.63	4.56	CC1CC(=O)Nc2cc(C(=O)NCCC3CCC3)ccc2N1C(=O)c1ccccc1 (racemic) [Example 3, 1-benzoyl-N-(2-cyclobutylethyl)-2-methyl-4-oxo-2,3,4,5-tetrahydro-1H-1,5-benzodiazepine-7-carboxamide]
> 20	2.90	Cc1nocc1C(=O)N1c2ccc(C(=O)NCCC3CC3)cc2NC(=O)CC1C (racemic) [Example 5, N-(2-cyclopropylethyl)-2-methyl-1-[(3-methyl-1,2-oxazol-4-yl)carbonyl]-4-oxo-2,3,4,5-tetrahydro-1H-1,5-benzodiazepine-7-carboxamide]
12.8	2.83	Cc1nocc1C(=O)N1c2ccc(C(=O)NCCC3CCC3)cc2NC(=O)CC1C (racemic) [Example 6, N-(2-cyclobutylethyl)-2-methyl-1-[(3-methyl-1,2-oxazol-4-yl)carbonyl]-4-oxo-2,3,4,5-tetrahydro-1H-1,5-benzodiazepine-7-carboxamide]
38.7	2.02	CCCCCNC(=O)c1ccc2c(c1)NC(=O)CC(C)N2C(=O)c1ccccc1F (racemic) [Example 46, 1-(2-fluorobenzoyl)-2-methyl-4-oxo-N-pentyl-2,3,4,5-tetrahydro-1H-1,5-benzodiazepine-7-carboxamide]
22.1	1.68	CCCCCNC(=O)c1ccc2c(c1)NC(=O)CC(C)N2C(=O)c1ccc(C)cc1 (racemic) [Example 47, 2-methyl-1-(4-methylbenzoyl)-4-oxo-N-pentyl-2,3,4,5-tetrahydro-1H-1,5-benzodiazepine-7-carboxamide]
26.7	1.60	CCCCCNC(=O)c1ccc2c(c1)NC(=O)CC(C)N2C(=O)C1CCCC1 (racemic) [Example 48, 1-(cyclopentylcarbonyl)-2-methyl-4-oxo-N-pentyl-2,3,4,5-tetrahydro-1H-1,5-benzodiazepine-7-carboxamide]
–	1.43	CCCNC(=O)c1ccc2c(c1)NC(=O)CC(C)N2C(=O)c1cccs1 (racemic) [Example 49, 2-methyl-4-oxo-N-propyl-1-(2-thienylcarbonyl)-2,3,4,5-tetrahydro-1H-1,5-benzodiazepine-7-carboxamide]
35	–	CCCCNC(=O)c1ccc2c(c1)NC(=O)CC(C)N2C(=O)C1CC1 (racemic) [Example 50, N-butyl-1-(cyclopropylcarbonyl)-2-methyl-4-oxo-2,3,4,5-tetrahydro-1H-1,5-benzodiazepine-7-carboxamide]
24.4	1.83	CCCCNC(=O)c1ccc2c(c1)NC(=O)CC(C)N2C(=O)CCC1CCCC1 (racemic) [Example 51, N-butyl-1-(3-cyclopentylpropanoyl)-2-methyl-4-oxo-2,3,4,5-tetrahydro-1H-1,5-benzodiazepine-7-carboxamide]
18.3	1.16	CCCCNC(=O)c1ccc2c(c1)NC(=O)CC(C)N2C(=O)c1cccc(F)c1 (racemic) [Example 52, N-butyl-1-(3-fluorobenzoyl)-2-methyl-4-oxo-2,3,4,5-tetrahydro-1H-1,5-benzodiazepine-7-carboxamide]
12.3	2.53	CCCCNC(=O)c1ccc2c(c1)NC(=O)CC(C)N2C(=O)c1ccccc1F (racemic) [Example 53, N-butyl-1-(2-fluorobenzoyl)-2-methyl-4-oxo-2,3,4,5-tetrahydro-1H-1,5-benzodiazepine-7-carboxamide]
4.9	3.77	Cc1nocc1C(=O)N1c2ccc(C(=O)NCCC3CC3)cc2NC(=O)C(C)C1C (single isomer, unassigned) [Example 8, N-(2-cyclopropylethyl)-2,3-dimethyl-1-[(3-methyl-1,2-oxazol-4-yl)carbonyl]-4-oxo-2,3,4,5-tetrahydro-1H-1,5-benzodiazepine-7-carboxamide]
> 20	1.82	Cc1nocc1C(=O)N1c2ccc(C(=O)NCCC3CC3)cc2NC(=O)C(C)C1C (single isomer, unassigned) [Example 9, N-(2-cyclopropylethyl)-2,3-dimethyl-1-[(3-methyl-1,2-oxazol-4-yl)carbonyl]-4-oxo-2,3,4,5-tetrahydro-1H-1,5-benzodiazepine-7-carboxamide]
> 20	1.29	Cc1nocc1C(=O)N1c2ccc(C(=O)NCCC3CC3)cc2NC(=O)C(C)C1C (single isomer, unassigned) [Example 10, N-(2-cyclopropylethyl)-2,3-dimethyl-1-[(3-methyl-1,2-oxazol-4-yl)carbonyl]-4-oxo-2,3,4,5-tetrahydro-1H-1,5-benzodiazepine-7-carboxamide]
12.9	3.50	Cc1nocc1C(=O)N1c2ccc(C(=O)NCCC3CC3)cc2NC(=O)C(C)C1C (single isomer, unassigned) [Example 11, N-(2-cyclopropylethyl)-2,3-dimethyl-1-[(3-methyl-1,2-oxazol-4-yl)carbonyl]-4-oxo-2,3,4,5-tetrahydro-1H-1,5-benzodiazepine-7-carboxamide]
2.53	–	C[C@H]1CC(=O)Nc2cc(C(=O)N(C)CCC3CC3)ccc2N1C(=O)N1CC2CC2C1 (stereo partly drawn) [Example 54, (2S)-1-(3-azabicyclo[3.1.0]hexane-3-carbonyl)-N-(2-cyclopropylethyl)-N,2-dimethyl-4-oxo-2,3,4,5-tetrahydro-1H-1,5-benzodiazepine-7-carboxamide]
2.64	–	C[C@@H]1CC(=O)Nc2cc(C(=O)NCCC3CC3)ccc2N1C(=O)N1CC2CC2C1 (stereo partly drawn) [Example 55, (2R)-1-(3-azabicyclo[3.1.0]hexane-3-carbonyl)-N-(2-cyclopropylethyl)-2-methyl-4-oxo-2,3,4,5-tetrahydro-1H-1,5-benzodiazepine-7-carboxamide]
> 30	–	C[C@@H]1CC(=O)Nc2cc(C(=O)N(C)CCC3CC3)ccc2N1C(=O)N1CC2CC2C1 (stereo partly drawn) [Example 56, (2R)-1-(3-azabicyclo[3.1.0]hexane-3-carbonyl)-N-(2-cyclopropylethyl)-N,2-dimethyl-4-oxo-2,3,4,5-tetrahydro-1H-1,5-benzodiazepine-7-carboxamide]
